Legend:
Format in all cases: in vivo
Echinochloa crusgalli = assay: Post-emergence test experiment, Echinochloa crusgalli; settings: 1000 g a.i./ha, 3 weeks in greenhouse, fresh weight inhibition
Outline: (§1)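 Growth inhibition is given as reduction in fresh weight, assessed 3 weeks post-treatment in the greenhouse. Spray solutions (acetone, tween-80, water, with 1.5 L/ha methyl oleate concentrate synergist) were applied to weeds and crops at 2-3 leaves, 2 weeks from sowing.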

Digitaria sanguinalis = assay: Post-emergence test experiment, Digitaria sanguinalis; settings: 1000 g a.i./ha, 3 weeks in greenhouse, fresh weight inhibition
Outline: as §1

[1] = tested on: Monocotyledonous and dicotyledonous weed seeds and main crop seeds; assay: Post-emergence test experiment, other weeds and crops (Table 4, 1000 g a.i./ha); settings: 3 weeks in greenhouse, fresh weight inhibition
Outline: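 Growth inhibition is scored on fresh weight. Spray solutions were made in acetone with tween-80, diluted in water, plus 1.5 L/ha methyl oleate emulsible concentrate. Plants from greenhouse-grown weed and crop seeds were treated post-emergence at 2-3 leaves, 2 weeks after sowing.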

SMILES: CC(Oc1nc(F)c(Cl)c(N)c1Cl)C(=O)SCc1ccccc1 (centres unmarked) [Compound 2-301]
- Activity level (growth inhibition rate), Echinochloa crusgalli (Echinochloa crusgalli): 5 (Level 5: the growth inhibition rate is greater than 85%)
- Activity level (growth inhibition rate), Digitaria sanguinalis (Digitaria sanguinalis): 5 (Level 5: the growth inhibition rate is greater than 85%)
- Activity level (growth inhibition rate), Abutilon theophrasti Medic. [1]: 5 (Level 5: the growth inhibition rate is greater than 85%)
- Activity level (growth inhibition rate), Galium aparine [1]: 5 (Level 5: the growth inhibition rate is greater than 85%)
- Activity level (growth inhibition rate), Monochoria Vaginalis [1]: 5 (Level 5: the growth inhibition rate is greater than 85%)

SMILES: C[C@@H](Oc1nc(F)c(Cl)c(N)c1Cl)C(=O)OCc1ccccc1C#N [Compound 2-333]
- Activity level (growth inhibition rate), Echinochloa crusgalli (Echinochloa crusgalli): 5 (Level 5: the growth inhibition rate is greater than 85%)
- Activity level (growth inhibition rate), Digitaria sanguinalis (Digitaria sanguinalis): 5 (Level 5: the growth inhibition rate is greater than 85%)
- Activity level (growth inhibition rate), Abutilon theophrasti Medic. [1]: 5 (Level 5: the growth inhibition rate is greater than 85%)
- Activity level (growth inhibition rate), Galium aparine [1]: 5 (Level 5: the growth inhibition rate is greater than 85%)
- Activity level (growth inhibition rate), Monochoria Vaginalis [1]: 5 (Level 5: the growth inhibition rate is greater than 85%)

SMILES: CC(Oc1nc(F)c(Cl)c(N)c1Cl)C(=O)O.N (centres unmarked) [Compound 2-3]
- Activity level (growth inhibition rate), Echinochloa crusgalli (Echinochloa crusgalli): 5 (Level 5: the growth inhibition rate is greater than 85%)
- Activity level (growth inhibition rate), Digitaria sanguinalis (Digitaria sanguinalis): 5 (Level 5: the growth inhibition rate is greater than 85%)
- Activity level (growth inhibition rate), Abutilon theophrasti Medic. [1]: 5 (Level 5: the growth inhibition rate is greater than 85%)
- Activity level (growth inhibition rate), Galium aparine [1]: 5 (Level 5: the growth inhibition rate is greater than 85%)
- Activity level (growth inhibition rate), Monochoria Vaginalis [1]: 5 (Level 5: the growth inhibition rate is greater than 85%)

SMILES: CC(Oc1nc(F)c(Cl)c(N)c1Cl)C(=O)OC1CCCO1 (centres unmarked) [Compound 2-297]
- Activity level (growth inhibition rate), Echinochloa crusgalli (Echinochloa crusgalli): 5 (Level 5: the growth inhibition rate is greater than 85%)
- Activity level (growth inhibition rate), Digitaria sanguinalis (Digitaria sanguinalis): 5 (Level 5: the growth inhibition rate is greater than 85%)
- Activity level (growth inhibition rate), Abutilon theophrasti Medic. [1]: 5 (Level 5: the growth inhibition rate is greater than 85%)
- Activity level (growth inhibition rate), Galium aparine [1]: 5 (Level 5: the growth inhibition rate is greater than 85%)
- Activity level (growth inhibition rate), Monochoria Vaginalis [1]: 5 (Level 5: the growth inhibition rate is greater than 85%)

SMILES: CCCC(C)OC(=O)[C@@H](C)Oc1nc(F)c(Cl)c(N)c1Cl (some centres unmarked) [Compound 2-93]
- Activity level (growth inhibition rate), Echinochloa crusgalli (Echinochloa crusgalli): 5 (Level 5: the growth inhibition rate is greater than 85%)
- Activity level (growth inhibition rate), Digitaria sanguinalis (Digitaria sanguinalis): 5 (Level 5: the growth inhibition rate is greater than 85%)
- Activity level (growth inhibition rate), Abutilon theophrasti Medic. [1]: 5 (Level 5: the growth inhibition rate is greater than 85%)
- Activity level (growth inhibition rate), Galium aparine [1]: 5 (Level 5: the growth inhibition rate is greater than 85%)
- Activity level (growth inhibition rate), Monochoria Vaginalis [1]: 5 (Level 5: the growth inhibition rate is greater than 85%)

SMILES: CC(Oc1nc(F)c(Cl)c(N)c1Cl)C(=O)SCc1ccccc1Cl (centres unmarked) [Compound 2-315]
- Activity level (growth inhibition rate), Echinochloa crusgalli (Echinochloa crusgalli): 5 (Level 5: the growth inhibition rate is greater than 85%)
- Activity level (growth inhibition rate), Digitaria sanguinalis (Digitaria sanguinalis): 5 (Level 5: the growth inhibition rate is greater than 85%)
- Activity level (growth inhibition rate), Abutilon theophrasti Medic. [1]: 5 (Level 5: the growth inhibition rate is greater than 85%)
- Activity level (growth inhibition rate), Galium aparine [1]: 5 (Level 5: the growth inhibition rate is greater than 85%)
- Activity level (growth inhibition rate), Monochoria Vaginalis [1]: 5 (Level 5: the growth inhibition rate is greater than 85%)

SMILES: CC(Oc1nc(F)c(Cl)c(N)c1Cl)C(=O)OCC(Cl)=C(Cl)Cl (centres unmarked) [Compound 2-286]
- Activity level (growth inhibition rate), Echinochloa crusgalli (Echinochloa crusgalli): 5 (Level 5: the growth inhibition rate is greater than 85%)
- Activity level (growth inhibition rate), Digitaria sanguinalis (Digitaria sanguinalis): 5 (Level 5: the growth inhibition rate is greater than 85%)
- Activity level (growth inhibition rate), Abutilon theophrasti Medic. [1]: 5 (Level 5: the growth inhibition rate is greater than 85%)
- Activity level (growth inhibition rate), Galium aparine [1]: 5 (Level 5: the growth inhibition rate is greater than 85%)
- Activity level (growth inhibition rate), Monochoria Vaginalis [1]: 5 (Level 5: the growth inhibition rate is greater than 85%)

SMILES: COC(=O)[C@@H](C)Oc1nc(F)c(Cl)c(N)c1C [Compound 2-29]
- Activity level (growth inhibition rate), Echinochloa crusgalli (Echinochloa crusgalli): 5 (Level 5: the growth inhibition rate is greater than 85%)
- Activity level (growth inhibition rate), Digitaria sanguinalis (Digitaria sanguinalis): 5 (Level 5: the growth inhibition rate is greater than 85%)
- Activity level (growth inhibition rate), Abutilon theophrasti Medic. [1]: 5 (Level 5: the growth inhibition rate is greater than 85%)
- Activity level (growth inhibition rate), Galium aparine [1]: 5 (Level 5: the growth inhibition rate is greater than 85%)
- Activity level (growth inhibition rate), Monochoria Vaginalis [1]: 5 (Level 5: the growth inhibition rate is greater than 85%)

SMILES: CCC(C)CSC(=O)[C@@H](C)Oc1nc(F)c(Cl)c(N)c1Cl (some centres unmarked) [Compound 2-88]
- Activity level (growth inhibition rate), Echinochloa crusgalli (Echinochloa crusgalli): 5 (Level 5: the growth inhibition rate is greater than 85%)
- Activity level (growth inhibition rate), Digitaria sanguinalis (Digitaria sanguinalis): 5 (Level 5: the growth inhibition rate is greater than 85%)
- Activity level (growth inhibition rate), Abutilon theophrasti Medic. [1]: 5 (Level 5: the growth inhibition rate is greater than 85%)
- Activity level (growth inhibition rate), Galium aparine [1]: 5 (Level 5: the growth inhibition rate is greater than 85%)
- Activity level (growth inhibition rate), Monochoria Vaginalis [1]: 5 (Level 5: the growth inhibition rate is greater than 85%)

SMILES: CC(Oc1nc(F)c(Cl)c(N)c1Cl)C(=O)SC1CCCCC1 (centres unmarked) [Compound 2-266]
- Activity level (growth inhibition rate), Echinochloa crusgalli (Echinochloa crusgalli): 5 (Level 5: the growth inhibition rate is greater than 85%)
- Activity level (growth inhibition rate), Digitaria sanguinalis (Digitaria sanguinalis): 5 (Level 5: the growth inhibition rate is greater than 85%)
- Activity level (growth inhibition rate), Abutilon theophrasti Medic. [1]: 5 (Level 5: the growth inhibition rate is greater than 85%)
- Activity level (growth inhibition rate), Galium aparine [1]: 5 (Level 5: the growth inhibition rate is greater than 85%)
- Activity level (growth inhibition rate), Monochoria Vaginalis [1]: 5 (Level 5: the growth inhibition rate is greater than 85%)

SMILES: CC(Oc1nc(F)c(Cl)c(N)c1Cl)C(=O)OCC(F)(F)C(F)(F)F (centres unmarked) [Compound 2-282]
- Activity level (growth inhibition rate), Echinochloa crusgalli (Echinochloa crusgalli): 5 (Level 5: the growth inhibition rate is greater than 85%)
- Activity level (growth inhibition rate), Digitaria sanguinalis (Digitaria sanguinalis): 5 (Level 5: the growth inhibition rate is greater than 85%)
- Activity level (growth inhibition rate), Abutilon theophrasti Medic. [1]: 5 (Level 5: the growth inhibition rate is greater than 85%)
- Activity level (growth inhibition rate), Galium aparine [1]: 5 (Level 5: the growth inhibition rate is greater than 85%)
- Activity level (growth inhibition rate), Monochoria Vaginalis [1]: 5 (Level 5: the growth inhibition rate is greater than 85%)

SMILES: C[C@@H](Oc1nc(F)c(Cl)c(N)c1Cl)C(=O)OC(C)(C)C [Compound 2-83]
- Activity level (growth inhibition rate), Echinochloa crusgalli (Echinochloa crusgalli): 5 (Level 5: the growth inhibition rate is greater than 85%)
- Activity level (growth inhibition rate), Digitaria sanguinalis (Digitaria sanguinalis): 5 (Level 5: the growth inhibition rate is greater than 85%)
- Activity level (growth inhibition rate), Abutilon theophrasti Medic. [1]: 5 (Level 5: the growth inhibition rate is greater than 85%)
- Activity level (growth inhibition rate), Galium aparine [1]: 5 (Level 5: the growth inhibition rate is greater than 85%)
- Activity level (growth inhibition rate), Monochoria Vaginalis [1]: 5 (Level 5: the growth inhibition rate is greater than 85%)

SMILES: CCC(C)COC(=O)[C@@H](C)Oc1nc(F)c(Cl)c(N)c1Cl (some centres unmarked) [Compound 2-87]
- Activity level (growth inhibition rate), Echinochloa crusgalli (Echinochloa crusgalli): 5 (Level 5: the growth inhibition rate is greater than 85%)
- Activity level (growth inhibition rate), Digitaria sanguinalis (Digitaria sanguinalis): 5 (Level 5: the growth inhibition rate is greater than 85%)
- Activity level (growth inhibition rate), Abutilon theophrasti Medic. [1]: 5 (Level 5: the growth inhibition rate is greater than 85%)
- Activity level (growth inhibition rate), Galium aparine [1]: 5 (Level 5: the growth inhibition rate is greater than 85%)
- Activity level (growth inhibition rate), Monochoria Vaginalis [1]: 5 (Level 5: the growth inhibition rate is greater than 85%)

SMILES: CC(Oc1nc(F)c(Cl)c(N)c1Cl)C(=O)OCc1ccc(F)cc1 (centres unmarked) [Compound 2-312]
- Activity level (growth inhibition rate), Echinochloa crusgalli (Echinochloa crusgalli): 5 (Level 5: the growth inhibition rate is greater than 85%)
- Activity level (growth inhibition rate), Digitaria sanguinalis (Digitaria sanguinalis): 5 (Level 5: the growth inhibition rate is greater than 85%)
- Activity level (growth inhibition rate), Abutilon theophrasti Medic. [1]: 5 (Level 5: the growth inhibition rate is greater than 85%)
- Activity level (growth inhibition rate), Galium aparine [1]: 5 (Level 5: the growth inhibition rate is greater than 85%)
- Activity level (growth inhibition rate), Monochoria Vaginalis [1]: 5 (Level 5: the growth inhibition rate is greater than 85%)

SMILES: C=CCOC(=O)C(C)(C)OC(=O)C(C)Oc1nc(F)c(Cl)c(N)c1Cl (centres unmarked) [Compound 2-288]
- Activity level (growth inhibition rate), Echinochloa crusgalli (Echinochloa crusgalli): 5 (Level 5: the growth inhibition rate is greater than 85%)
- Activity level (growth inhibition rate), Digitaria sanguinalis (Digitaria sanguinalis): 5 (Level 5: the growth inhibition rate is greater than 85%)
- Activity level (growth inhibition rate), Abutilon theophrasti Medic. [1]: 5 (Level 5: the growth inhibition rate is greater than 85%)
- Activity level (growth inhibition rate), Galium aparine [1]: 5 (Level 5: the growth inhibition rate is greater than 85%)
- Activity level (growth inhibition rate), Monochoria Vaginalis [1]: 5 (Level 5: the growth inhibition rate is greater than 85%)

SMILES: COC(=O)[C@@H](C)Oc1ncc(Cl)c(N)c1C [Compound 2-28]
- Activity level (growth inhibition rate), Echinochloa crusgalli (Echinochloa crusgalli): 5 (Level 5: the growth inhibition rate is greater than 85%)
- Activity level (growth inhibition rate), Digitaria sanguinalis (Digitaria sanguinalis): 5 (Level 5: the growth inhibition rate is greater than 85%)
- Activity level (growth inhibition rate), Abutilon theophrasti Medic. [1]: 5 (Level 5: the growth inhibition rate is greater than 85%)
- Activity level (growth inhibition rate), Galium aparine [1]: 5 (Level 5: the growth inhibition rate is greater than 85%)
- Activity level (growth inhibition rate), Monochoria Vaginalis [1]: 5 (Level 5: the growth inhibition rate is greater than 85%)

— patent publication US12304890B2, “R-type pyridyloxycarboxylic acid, salt and ester derivative thereof, and preparation method therefor, and herbicidal composition and application thereof” (Qingdao Kingagroot Chemical Compound Co., Ltd., priority 2018, dated 2025)
